# Measurements: US12540131B2 (Merck Sharp & Dohme LLC, priority 2019, dated 2026)
# Biological target: GST tagged truncated human mutant G2019S LRRK2 (Homo sapiens (Human), UniProt Q5S007, G2019S)
# Test: LRRK2 Km ATP LanthaScreen Assay
# Assay type: biochemical
# Conditions: G2019S LRRK2, 134 μM ATP (Km ATP), mean values
# Outline: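 Enzyme (GST-tagged, truncated) was preincubated with compound for 15 min at RT in 50 mM Tris pH 8.5, 10 mM MgCl2, 0.01% Brij-35, 1 mM EGTA, 2 mM DTT and 0.05 mM orthovanadate. Fluorescein-LRRKtide and 134 μM ATP (Km) were then added for 90 min. EDTA and Tb-anti-pERM antibody stopped the reaction; the TR-FRET 520/495 ratio gave 4-parameter IC50s, reported as mean pIC50.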
# Chain of GST tagged truncated human mutant G2019S LRRK2 (Q5S007 970-2527 G2019S): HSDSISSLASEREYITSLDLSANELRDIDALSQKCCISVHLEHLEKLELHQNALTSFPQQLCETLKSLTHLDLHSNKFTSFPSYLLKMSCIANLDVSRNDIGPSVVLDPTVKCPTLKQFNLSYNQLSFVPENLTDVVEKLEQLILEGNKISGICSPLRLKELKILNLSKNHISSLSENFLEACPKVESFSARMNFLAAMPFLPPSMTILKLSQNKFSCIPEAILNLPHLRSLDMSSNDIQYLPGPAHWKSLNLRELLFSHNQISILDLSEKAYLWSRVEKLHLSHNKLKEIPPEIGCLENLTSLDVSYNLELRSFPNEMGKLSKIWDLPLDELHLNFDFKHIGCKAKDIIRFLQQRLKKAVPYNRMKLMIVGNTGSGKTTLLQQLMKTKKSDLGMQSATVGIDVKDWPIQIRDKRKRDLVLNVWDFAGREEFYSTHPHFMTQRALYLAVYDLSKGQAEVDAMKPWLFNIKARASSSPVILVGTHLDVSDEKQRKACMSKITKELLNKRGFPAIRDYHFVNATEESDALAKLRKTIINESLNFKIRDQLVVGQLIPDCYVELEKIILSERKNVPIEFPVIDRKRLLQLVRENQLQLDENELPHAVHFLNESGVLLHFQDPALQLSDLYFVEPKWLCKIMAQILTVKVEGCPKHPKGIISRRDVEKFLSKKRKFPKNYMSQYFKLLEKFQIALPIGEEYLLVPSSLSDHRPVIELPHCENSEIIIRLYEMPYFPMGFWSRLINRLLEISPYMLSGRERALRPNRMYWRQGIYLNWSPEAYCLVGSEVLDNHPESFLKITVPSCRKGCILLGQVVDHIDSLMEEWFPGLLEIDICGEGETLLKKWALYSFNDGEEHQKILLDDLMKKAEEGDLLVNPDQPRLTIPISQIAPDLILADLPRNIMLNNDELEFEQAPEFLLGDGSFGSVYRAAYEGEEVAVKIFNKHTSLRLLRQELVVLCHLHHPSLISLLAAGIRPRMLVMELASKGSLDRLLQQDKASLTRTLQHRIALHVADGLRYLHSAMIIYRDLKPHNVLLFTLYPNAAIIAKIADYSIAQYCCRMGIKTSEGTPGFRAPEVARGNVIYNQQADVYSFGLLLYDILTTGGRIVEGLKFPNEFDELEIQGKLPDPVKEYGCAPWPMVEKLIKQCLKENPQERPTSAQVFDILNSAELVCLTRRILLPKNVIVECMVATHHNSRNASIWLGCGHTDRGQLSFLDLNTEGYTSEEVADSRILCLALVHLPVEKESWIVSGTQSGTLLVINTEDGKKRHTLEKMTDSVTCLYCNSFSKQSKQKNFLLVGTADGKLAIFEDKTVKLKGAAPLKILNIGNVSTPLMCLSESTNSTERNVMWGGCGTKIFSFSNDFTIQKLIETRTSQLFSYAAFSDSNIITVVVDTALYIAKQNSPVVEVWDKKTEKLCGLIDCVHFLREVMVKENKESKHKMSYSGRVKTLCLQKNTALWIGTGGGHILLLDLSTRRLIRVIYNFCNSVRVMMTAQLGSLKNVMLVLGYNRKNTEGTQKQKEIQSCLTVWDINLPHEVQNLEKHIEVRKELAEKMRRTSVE
row,Structure (SMILES),LRRK2 pIC50
1,"Cc1c(Nc2ncc3cc(Cl)c(C4CCN(C[C@H](O)c5ccc(F)cc5F)CC4)cc3n2)cnn1C1CC1 [Ex-4.201, (1R)-2-(4-{6-chloro-2-[(1-cyclopropyl-5-methyl-1H-pyrazol-4-yl)amino]quinazolin-7-yl}piperidin-1-yl)-1-(2,4-difluorophenyl)ethan-1-ol]",8.19
2,"O[C@H]1COC[C@H]1N1CCC(c2cc3nc(Nc4cnn(C56CC(C5)C6)c4)ncc3cc2Cl)CC1 (single isomer, unassigned) [Ex-4.151, (3S,4S) or (3R,4R) 4-[4-(2-{[1-(bicyclo[1.1.1]pentan-1-yl)-1H-pyrazol-4-yl]amino}-6-chloroquinazolin-7-yl)piperidin-1-yl]oxolan-3-ol]",8.98
3,"Cn1ncc(Nc2ncc3cc(Cl)c(C4CCN([C@]5(C)COC[C@@H]5O)CC4)cc3n2)c1Cl (single isomer, unassigned) [Ex-2.76, (3S,4S) or (3R,4R) 4-(4-(6-chloro-2-((5-chloro-1-methyl-1H-pyrazol-4-yl)amino)quinazolin-7-yl)piperidin-1-yl)-4-methyltetrahydrofuran-3-ol]",7.76
4,"C[C@@]1(N2CCC(c3cc4nc(Nc5ccnn5C5CC5(F)F)ncc4cc3Cl)CC2)COC[C@@H]1O (single isomer, unassigned) [Ex-2.87, (S)(3S,4S) or (S)(3R,4R) or (R)(3S,4S) or (R)(3R,4R) 4-[4-(6-chloro-2-{[1-(2,2-difluorocyclopropyl)-1H-pyrazol-5-yl]amino}quinazolin-7-yl)piperidin-1-yl]-4-methyloxolan-3-ol]",8.04
5,"Cc1c(Nc2ncc3cc(Cl)c(C4CCN([C@@]5(C)COC[C@H]5O)CC4)cc3n2)cnn1C1CC1 (single isomer, unassigned) [Ex-1.15, (3S,4S) or (3R,4R) 4-(4-(6-chloro-2-((1-cyclopropyl-5-methyl-1H-pyrazol-4-yl)amino)quinazolin-7-yl)piperidin-1-yl)-4-methyltetrahydrofuran-3-ol]",8.16
6,"Cc1cc2cnc(Nc3cnn(C4CC4)c3Cl)nc2cc1C1CCN([C@@H]2COC[C@@H]2O)[C@@H](C)C1 (single isomer, unassigned) [Ex-4.243, (3S,4S)(2S) or (3R,4R)(2S) 4-[4-{2-[(5-chloro-1-cyclopropyl-1H-pyrazol-4-yl)amino]-6-methylquinazolin-7-yl}-2-methylpiperidin-1-yl]oxolan-3-ol]",>9.20
7,"C[C@@]1(N2CCC(c3cc4nc(Nc5cnn(C6CC6)c5Cl)ncc4cc3Cl)CC2)COC[C@@H]1O (single isomer, unassigned) [Ex-1.7, (3R,4R)- or (3S,4S)-4-(4-(6-chloro-2-((5-chloro-1-cyclopropyl-1H-pyrazol-4-yl)amino)quinazolin-7-yl)piperidin-1-yl)-4-methyltetrahydrofuran-3-ol]",>9.20
8,"Cc1nsc(Nc2ncc3cc(Cl)c([C@@H]4CCN(C5COC[C@@H]5O)C[C@H]4F)cc3n2)c1Cl (single isomer, unassigned) [Ex-4.120, (3S,4S)(3S,4S) or (3S,4S)(3R,4R) or (3R,4R)(3S,4S) or (3R,4R)(3R,4R) 4-{6-chloro-2-[(4-chloro-3-methyl-1,2-thiazol-5-yl)amino]quinazolin-7-yl}-3-fluoropiperidin-1-yl]oxolan-3-ol]",7.65
9,"N#Cc1cc2cnc(Nc3cnn(C4CC4(F)F)c3Cl)nc2cc1[C@H]1CCN(C2COC2)C[C@@H]1F (single isomer, unassigned) [Ex-6.6, (R)(3S,4S) or (S)(3S,4S) or (R)(3R,4R) or (S)(3R,4R) 2-((5-chloro-1-(2,2-difluorocyclopropyl)-1H-pyrazol-4-yl)amino)-7-(3-fluoro-1-(oxetan-3-yl)piperidin-4-yl)quinazoline-6-carbonitrile]",8.94
10,"O[C@H]1COC[C@H]1N1CC[C@@H](c2cc3nc(Nc4cnn(C56CC(C5)C6)c4)ncc3cc2Cl)[C@H](F)C1 (single isomer, unassigned) [Ex-4.154, (3S,4S)(3S,4S) or (3S,4S)(3R,4R) or (3R,4R)(3S,4S) or (3R,4R)(3R,4R) 4-[4-(2-{[1-(bicyclo[1.1.1]pentan-1-yl)-1H-pyrazol-4-yl]amino}-6-chloroquinazolin-7-yl)-3-fluoropiperidin-1-yl]oxolan-3-ol]",9.06
11,"Cc1c(Nc2ncc3cc(Cl)c(C4CCN(C[C@]5(O)C[C@H](C#N)C5)CC4)cc3n2)cnn1C1CC1 [Ex-4.229, trans-3-[(4-{6-chloro-2-[(1-cyclopropyl-5-methyl-1H-pyrazol-4-yl)amino]quinazolin-7-yl}piperidin-1-yl)methyl]-3-hydroxycyclobutane-1-carbonitrile]",8.95
12,"FC(F)n1cc(Nc2ncc3cc(Cl)c(C4CCN(C5COC5)CC4)cc3n2)cn1 [Ex-4.18, 6-chloro-N-[1-(difluoromethyl)-1H-pyrazol-4-yl]-7-[1-(oxetan-3-yl)piperidin-4-yl]quinazolin-2-amine]",9.16
13,"N#CC1(CN2CCC(c3cc4nc(Nc5cnn(C6CC6)c5Cl)ncc4cc3Cl)CC2)CC1 [Ex-4.78, 1-[(4-{6-chloro-2-[(5-chloro-1-cyclopropyl-1H-pyrazol-4-yl)amino]quinazolin-7-yl}piperidin-1-yl)methyl]cyclopropane-1-carbonitrile]",7.95
14,"Clc1cc2cnc(Nc3cnn(C4CC4)c3Cl)nc2cc1C1CCN(C2COC(C3CC3)C2)CC1 (single isomer, unassigned) [Ex-4.166, (3R,5R) or (3S,5R) or (3R,5S) or (3S,5S) 6-chloro-N-(5-chloro-1-cyclopropyl-1H-pyrazol-4-yl)-7-[1-(5-cyclopropyloxolan-3-yl)piperidin-4-yl]quinazolin-2-amine]",9.17
15,"O[C@@H]1COCC1N1CC[C@H](c2cc3nc(Nc4cnn(C5CC5(F)F)c4Cl)ncc3cc2Cl)[C@@H](F)C1 (single isomer, unassigned) [Ex-4.9, (R)(3S,4S)(3S,4S) or (R)(3S,4S)(3R,4R) or (R)(3R,4R)(3S,4S) or (R)(3R,4R)(3R,4R) or (S)(3S,4S)(3S,4S) or (S)(3S,4S)(3R,4R) or (S)(3R,4R)(3S,4S) or (S)(3R,4R)(3R,4R) 4-(4-(6-chloro-2-((5-chloro-1-(2,2-difluorocyclopropyl)-1H-pyrazol-4-yl)amino)quinazolin-7-yl)-3-fluoropiperidin-1-yl)tetrahydrofuran-3-ol]",>9.20
16,"CO[C@H]1COC[C@H]1N1CCC(c2cc3nc(Nc4cnn(C5CC5)c4C)ncc3cc2Cl)CC1 (single isomer, unassigned) [Ex-7.5, (3S,4S) or (3R,4R) 6-chloro-N-(1-cyclopropyl-5-methyl-1H-pyrazol-4-yl)-7-[1-(4-methoxyoxolan-3-yl)piperidin-4-yl]quinazolin-2-amine]",>9.20
17,"CC(C)(O)Cn1ncc(Nc2ncc3cc(Cl)c(C4CCN(C5COC5)CC4)cc3n2)c1Cl [Ex-4.3, 1-(5-chloro-4-((6-chloro-7-(1-(oxetan-3-yl)piperidin-4-yl)quinazolin-2-yl)amino)-1H-pyrazol-1-yl)-2-methylpropan-2-ol]",>9.20
18,"COC[C@@H](O)CN1CCC(c2cc3nc(Nc4cnn(C5CC5)c4C)ncc3cc2Cl)CC1 [Ex-4.212, (2S)-1-(4-{6-chloro-2-[(1-cyclopropyl-5-methyl-1H-pyrazol-4-yl)amino]quinazolin-7-yl}piperidin-1-yl)-3-methoxypropan-2-ol]",8.75
19,"Clc1cc2cnc(Nc3cnn(C4CC4)c3Cl)nc2cc1C1CCN(C2COC(C3CC3)C2)CC1 (single isomer, unassigned) [Ex-4.167, (3R,5R) or (3S,5R) or (3R,5S) or (3S,5S) 6-chloro-N-(5-chloro-1-cyclopropyl-1H-pyrazol-4-yl)-7-[1-(5-cyclopropyloxolan-3-yl)piperidin-4-yl]quinazolin-2-amine]",8.14
20,"Cc1c(Nc2ncc3cc(Cl)c([C@@H]4CCN(C5CCCC5O)C[C@H]4F)cc3n2)cnn1C1CC1 (single isomer, unassigned) [Ex-4.159, (1S,2R)(3S,4S) or (1R,2S)(3S,4S) or (1R,2R)(3S,4S) or (1S,2S)(3S,4S) or (1S,2R)(3R,4R) or (1R,2S)(3R,4R) or (1R,2R)(3R,4R) or (1S,2S)(3R,4R) 2-(4-{6-chloro-2-[(1-cyclopropyl-5-methyl-1H-pyrazol-4-yl)amino]quinazolin-7-yl}-3-fluoropiperidin-1-yl)cyclopentan-1-ol]",>9.20

# Same assay, conditions: G2019S LRRK2, 134 μM ATP (Km ATP), mean values; read-out: LRRK2 pIC50 (converted)
row,Structure (SMILES),IC50
1,"Cc1c(Nc2ncc3cc(Cl)c(C4CCN(C5(C)COC5)CC4)cc3n2)cnn1C1CC1(F)F (single isomer, unassigned) [Ex-2.30, (S) or (R) 6-chloro-N-[1-(2,2-difluorocyclopropyl)-5-methyl-1H-pyrazol-4-yl]-7-[1-(3-methyloxetan-3-yl)piperidin-4-yl]quinazolin-2-amine]",0.646 nM
2,"Cc1c(Nc2ncc3cc(Cl)c(C4CCN(C5COC5)CC4)cc3n2)cnn1C1CC1(F)F (single isomer, unassigned) [Ex-4.179, (R) or (S) 6-chloro-N-[1-(2,2-difluorocyclopropyl)-5-methyl-1H-pyrazol-4-yl]-7-[1-(oxetan-3-yl)piperidin-4-yl]quinazolin-2-amine]",< 0.631 nM
